Experimental data as given in patent US20210177805A1 (Ovid Therapeutics Inc., priority 2018, published 2021).

Columns and labels:
[1] = human, in vivo
Experimental: Each subject was expected to complete all 6 treatment periods and there was a washout of at least 4 days between each treatment period.
Each oral dosing within Treatment Periods consisted of 2 capsules of test drug taken simultaneously at each scheduled dosing. […] Subjects received their study drug after an overnight fast with 240 mL of water in the morning about 8:00 AM. Water was permitted ad libitum except within 1 hour prior to and after study drug administration. No food was allowed for 4 hours post dose.

[2] = system: subjects with Angelman syndrome; experiment: Efficacy in patients with Angelman syndrome, Clinical Global Impressions (CGI-S, CGI-I); assay type: in vivo, human
Text: CGI-S scale assessed all sub-domains of Angelman syndrome (gross and fine motor ability, sleep, and adaptive behavior) plus globally by the investigator. […] The Clinical Global Impressions-Improvement (CGI-I) scale was used to assess all sub-domains of Angelman syndrome (gross and fine motor ability, sleep, and adaptive behavior) plus globally by the investigator and caregiver. CGI-I is a 7-point scale in which the investigator rates the improvement or worsening of symptoms compared to baseline.
Moreover, the percentage who were very much improved on CGI-I in the QD group vs placebo went from 20% (vs. 11%) to 27% (vs. 9%) to 33% (vs. 0%) progressing from the oldest to youngest cohorts.

[3] = system: subjects with Angelman syndrome; experiment: Sleep diary in patients with Angelman syndrome; assay type: in vivo, human; details: for 6-week LS Mean difference, total sleep time at night / 12-week LS Mean difference, total sleep time at night: change from baseline
Text: The most notable change from patient sleep diaries was in the number of nights slept independently. In the QD dose cohort, one quarter of patients slept every night with parents, at 12 weeks, this had improved to only 1 in 5 nights; in the placebo group, the most effected quarter slept 3 of 4 nights with parents, which had improved to 2 of 4 nights at 12 weeks (P<0.001, Chi Square). The observed and change from baseline in total hours of sleep time at night (assessed from subject Sleep Diary) is provided in Table III.

[4] = system: subjects with Angelman syndrome; experiment: Treatment-related and treatment-emergent adverse events in patients with Angelman syndrome
Experimental: This multicenter, randomized, parallel (3-arm), double-blind, placebo-controlled trial enrolled 88 patients including adults (n=66) and adolescents (n=22) aged 13 to 49 years of age, diagnosed with Angelman syndrome. […] The dosing schedules that were assessed against placebo were once daily (QD): An evening dose titrated to the target dose of 15 mg unless not tolerated; and twice daily (BID): Evening and morning doses titrated to the target doses of 15 mg evening dose and 10 mg morning dose unless not tolerated.
Gastrointestinal adverse events may be considered fundamental to the behavioral disturbances seen in autistic spectrum disorders, such as autism and Angelman syndrome.

Which “CL (CL/F row, footnote for 10 mg IV)” value ([1]; iv, 10 mg) does the source give for `Oc1noc2c1CCNC2` [gaboxadol, 4,5,6,7-tetrahydroisoxazolo [5,4-c]pyridine-3-ol] here?
The value was 438 mL/min.

What about the “AUC0-∞ Slope (90% CI), dose proportionality assessment” value ([1]; po) of the same compound?
Its value is 0.98 (0.95, 1.01).

And the CGI-I ([2]; QD 15 mg evening dose, 7-point scale, vs. 3.8 placebo, p=0.0006)?
Its CGI-I is 3.0.

What about the “CGI-I 12-week LS Mean” value ([2]; QD dosing (N = 29), clinician assessed, MMRM) of the same compound?
The value was 3.00 (0.16).

What about the “6-week LS Mean sleep time (total sleep time at night, Sleep Diary)” value (shortened to “6-week LS Mean sleep time”) ([3]; BID dosing (N = 29)) of the same compound?
The value was 8.95 (1.1) hours.

And the “12-week LS Mean sleep time (total sleep time at night, Sleep Diary)” value (“12-week LS Mean sleep time” for short) ([3]; BID dosing (N = 29))?
Its value is 8.84 (1.1) hours.

What about the “6-week LS Mean difference, total sleep time at night” value (“6-week LS Mean difference” for short) ([3]; BID dosing) of the same compound?
The value was 0.30 (1.1) hours.

And the “12-week LS Mean difference, total sleep time at night” value (“12-week LS Mean difference” below) ([3]; BID dosing)?
Its value is 0.18 (0.97) hours.

And the “6-week LS Mean sleep time” value ([3]; Combined (N = 58))?
Its value is 8.93 (1.3) hours.

And the “12-week LS Mean sleep time” value ([3]; Combined (N = 58))?
Its value is 8.80 (1.1) hours.

And the “6-week LS Mean difference” value ([3]; Combined)?
Its value is 0.22 (0.94) hours.

And the “12-week LS Mean difference” value ([3]; Combined)?
Its value is 0.07 (1.0) hours.

What about the “6-week LS Mean sleep time” value ([3]; QD dosing (N = 29)) of the same compound?
The value was 8.91 (1.5) hours.

And the “12-week LS Mean sleep time” value ([3]; QD dosing (N = 29))?
The value was 8.76 (1.2) hours.

What about the “6-week LS Mean difference” value ([3]; QD dosing) of the same compound?
Its value is 0.14 (0.81) hours.

What about the “12-week LS Mean difference” value ([3]; QD dosing) of the same compound?
The value was −0.04 (1.1) hours.

What about the “Abdominal Pain upper, subjects (%)” value ([4]; BID dosing (N = 29)) of the same compound?
Its value is 0.

And the “At least 1 Adverse Event, subjects (%)” value ([4]; BID dosing (N = 29))?
Its value is 19 (66%)^.

What about the “Diarrhea, subjects (%)” value ([4]; BID dosing (N = 29)) of the same compound?
Its value is 1 (3.4%).

What about the “Gastrointestinal disorders, subjects (%)” value ([4]; BID dosing (N = 29)) of the same compound?
The value was 4 (13.8%).

And the “Nausea, subjects (%)” value ([4]; BID dosing (N = 29))?
The value was 2 (6.9%).

And the “Retching, subjects (%)” value ([4]; BID dosing (N = 29))?
Its value is 1 (3.4%).

What about the “Vomiting, subjects (%)” value ([4]; BID dosing (N = 29)) of the same compound?
The value was 1 (3.4%).

And the “Abdominal Pain upper, subjects (%)” value ([4]; Combined (N = 58))?
Its value is 0.

What about the “At least 1 Adverse Event, subjects (%)” value ([4]; Combined (N = 58)) of the same compound?
The value was 37 (64%)^.

And the “Diarrhea, subjects (%)” value ([4]; Combined (N = 58))?
Its value is 1 (1.7%).

What about the “Gastrointestinal disorders, subjects (%)” value ([4]; Combined (N = 58)) of the same compound?
The value was 4 (6.9%).

What about the “Nausea, subjects (%)” value ([4]; Combined (N = 58)) of the same compound?
The value was 2 (3.4%).

What about the “Retching, subjects (%)” value ([4]; Combined (N = 58)) of the same compound?
The value was 1 (1.7%).

And the “Vomiting, subjects (%)” value ([4]; Combined (N = 58))?
The value was 1 (1.7%).

And the “Abdominal Pain upper, subjects (%)” value ([4]; QD dosing (N = 29))?
Its value is 0.

And the “At least 1 Adverse Event, subjects (%)” value ([4]; QD dosing (N = 29))?
The value was 18 (62%).

What about the “Diarrhea, subjects (%)” value ([4]; QD dosing (N = 29)) of the same compound?
The value was 0.

What about the “Gastrointestinal disorders, subjects (%)” value ([4]; QD dosing (N = 29)) of the same compound?
Its value is 0.

And the “Nausea, subjects (%)” value ([4]; QD dosing (N = 29))?
The value was 0.

And the “Retching, subjects (%)” value ([4]; QD dosing (N = 29))?
The value was 0.

What about the “Vomiting, subjects (%)” value ([4]; QD dosing (N = 29)) of the same compound?
Its value is 0.
